{"source": "the supplement of paper PMC8960247", "note": "Counter-ions that a name gives are not always drawn. ± gives the standard error.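 Also: immortalized renal angiomyolipoma cells stably carrying empty vector or TSC2, dosed in 384-well plates in DMEM, viability normalized to vehicle-treated wells within each plate.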", "data": [{"tested_on": "621-102 (TSC2-deficient)", "assay": "relative viability vs DMSO; higher = less cytotoxic", "details": "0.0001 µM; serum: 10% FBS; 72 h", "units": {"relative viability": "%"}, "values": [{"smiles": "CCS(=O)(=O)Nc1ccc2c(c1)/C(=C(/Nc1ccc(CN3CCCCC3)cc1)c1ccccc1)C(=O)N2", "note": "[Hesperadin]", "relative viability": "105 ± 6.1"}, {"smiles": "CC[C@H](c1ccc(O)cc1)[C@@H](CC)c1ccc(O)cc1", "note": "[Hexestrol (Bibenzyl)]", "relative viability": "105 ± 2.8"}, {"smiles": "O=C1[C@H](Cc2ccc(O)cc2)N2C(=O)CCN(C(=O)NCc3ccccc3)[C@H]2CN1Cc1cccc2ccccc12", "note": "[ICG-001]", "relative viability": "116 ± 2.7"}, {"smiles": "CCN(CC)Cc1ccc2cc(COC(=O)Nc3ccc(C(=O)NO)cc3)ccc2c1", "note": "[ITF2357]", "relative viability": "107 ± 6.2"}, {"smiles": "CC(C)Cc1ccc(C(C)C(=O)O)cc1", "note": "(configuration not stated) [Ibuprofen]", "relative viability": "102.6 ± 0.15"}, {"smiles": "COc1ccc(-c2oc3c(CC=C(C)C)c(O[C@@H]4O[C@H](CO)[C@@H](O)[C@H](O)[C@H]4O)cc(O)c3c(=O)c2O[C@@H]2O[C@@H](C)[C@H](O)[C@@H](O)[C@H]2O)cc1", "note": "[Icariin]", "relative viability": "93.6 ± 10"}, {"smiles": "Cc1ccc(NC(=O)c2ccc(CN3CCN(C)CC3)cc2)cc1Nc1nccc(-c2cccnc2)n1", "note": "[Imatinib (STI571)]", "relative viability": "85.09 ± 0.54"}, {"smiles": "Cc1ccc(NC(=O)c2ccc(CN3CCN(C)CC3)cc2)cc1Nc1nccc(-c2cccnc2)n1", "note": "[Imatinib Mesylate]", "relative viability": "99 ± 2.9"}, {"smiles": "CCCCC1=NC2(CCCC2)C(=O)N1Cc1ccc(-c2ccccc2-c2nnn[nH]2)cc1", "note": "[Irbesartan (Avapro)]", "relative viability": "103.3 ± 0.78"}, {"smiles": "CCc1c2c(nc3ccc(OC(=O)N4CCC(N5CCCCC5)CC4)cc13)-c1cc3c(c(=O)n1C2)COC(=O)[C@]3(O)CC", "note": "[Irinotecan HCl Trihydrate]", "relative viability": "94 ± 3.9"}, {"smiles": "CCc1c2c(nc3ccc(OC(=O)N4CCC(N5CCCCC5)CC4)cc13)-c1cc3c(c(=O)n1C2)COC(=O)[C@]3(O)CC", "note": "[Irinotecan]", "relative viability": "105 ± 1.2"}, {"smiles": "Clc1ccc(C(Cn2ccnc2)OCc2c(Cl)cccc2Cl)c(Cl)c1", "note": "(configuration not stated) [Isoconazole]", "relative viability": "104 ± 1.2"}, {"smiles": "CC(C)NCC(O)c1ccc(O)c(O)c1", "note": "(configuration not stated) [Isoprenaline HCl]", "relative viability": "103 ± 4.7"}, {"smiles": "Cc1ccc(C(=O)N(CCCN)[C@@H](c2nc3cc(Cl)ccc3c(=O)n2Cc2ccccc2)C(C)C)cc1", "note": "[Ispinesibmesilate]", "relative viability": "95.1 ± 1.5"}]}, {"tested_on": "621-102 (TSC2-deficient)", "assay": "relative viability vs DMSO; higher = less cytotoxic", "details": "0.001 µM; serum: 10% FBS; 72 h", "units": {"relative viability": "%"}, "values": [{"smiles": "CCS(=O)(=O)Nc1ccc2c(c1)/C(=C(/Nc1ccc(CN3CCCCC3)cc1)c1ccccc1)C(=O)N2", "note": "[Hesperadin]", "relative viability": "95.5 ± 3.5"}, {"smiles": "CC[C@H](c1ccc(O)cc1)[C@@H](CC)c1ccc(O)cc1", "note": "[Hexestrol (Bibenzyl)]", "relative viability": "121 ± 3.7"}, {"smiles": "O=C1[C@H](Cc2ccc(O)cc2)N2C(=O)CCN(C(=O)NCc3ccccc3)[C@H]2CN1Cc1cccc2ccccc12", "note": "[ICG-001]", "relative viability": "105.3 ± 0.41"}, {"smiles": "CCN(CC)Cc1ccc2cc(COC(=O)Nc3ccc(C(=O)NO)cc3)ccc2c1", "note": "[ITF2357]", "relative viability": "101 ± 3.4"}, {"smiles": "CC(C)Cc1ccc(C(C)C(=O)O)cc1", "note": "(configuration not stated) [Ibuprofen]", "relative viability": "109 ± 5.4"}, {"smiles": "COc1ccc(-c2oc3c(CC=C(C)C)c(O[C@@H]4O[C@H](CO)[C@@H](O)[C@H](O)[C@H]4O)cc(O)c3c(=O)c2O[C@@H]2O[C@@H](C)[C@H](O)[C@@H](O)[C@H]2O)cc1", "note": "[Icariin]", "relative viability": "92.7 ± 2.9"}, {"smiles": "Cc1ccc(NC(=O)c2ccc(CN3CCN(C)CC3)cc2)cc1Nc1nccc(-c2cccnc2)n1", "note": "[Imatinib (STI571)]", "relative viability": "107 ± 2.1"}, {"smiles": "Cc1ccc(NC(=O)c2ccc(CN3CCN(C)CC3)cc2)cc1Nc1nccc(-c2cccnc2)n1", "note": "[Imatinib Mesylate]", "relative viability": "113 ± 3.7"}, {"smiles": "CCCCC1=NC2(CCCC2)C(=O)N1Cc1ccc(-c2ccccc2-c2nnn[nH]2)cc1", "note": "[Irbesartan (Avapro)]", "relative viability": "100.8 ± 0.93"}, {"smiles": "CCc1c2c(nc3ccc(OC(=O)N4CCC(N5CCCCC5)CC4)cc13)-c1cc3c(c(=O)n1C2)COC(=O)[C@]3(O)CC", "note": "[Irinotecan HCl Trihydrate]", "relative viability": "98.4 ± 3"}, {"smiles": "CCc1c2c(nc3ccc(OC(=O)N4CCC(N5CCCCC5)CC4)cc13)-c1cc3c(c(=O)n1C2)COC(=O)[C@]3(O)CC", "note": "[Irinotecan]", "relative viability": "106 ± 3.8"}, {"smiles": "Clc1ccc(C(Cn2ccnc2)OCc2c(Cl)cccc2Cl)c(Cl)c1", "note": "(configuration not stated) [Isoconazole]", "relative viability": "107 ± 2.4"}, {"smiles": "CC(C)NCC(O)c1ccc(O)c(O)c1", "note": "(configuration not stated) [Isoprenaline HCl]", "relative viability": "99.5 ± 2.4"}, {"smiles": "Cc1ccc(C(=O)N(CCCN)[C@@H](c2nc3cc(Cl)ccc3c(=O)n2Cc2ccccc2)C(C)C)cc1", "note": "[Ispinesibmesilate]", "relative viability": "81.2 ± 1.3"}]}, {"tested_on": "621-102 (TSC2-deficient)", "assay": "relative viability vs DMSO; higher = less cytotoxic", "details": "0.01 µM; serum: 10% FBS; 72 h", "units": {"relative viability": "%"}, "values": [{"smiles": "CCS(=O)(=O)Nc1ccc2c(c1)/C(=C(/Nc1ccc(CN3CCCCC3)cc1)c1ccccc1)C(=O)N2", "note": "[Hesperadin]", "relative viability": "77.4 ± 2.1"}, {"smiles": "CC[C@H](c1ccc(O)cc1)[C@@H](CC)c1ccc(O)cc1", "note": "[Hexestrol (Bibenzyl)]", "relative viability": "108 ± 5.3"}, {"smiles": "O=C1[C@H](Cc2ccc(O)cc2)N2C(=O)CCN(C(=O)NCc3ccccc3)[C@H]2CN1Cc1cccc2ccccc12", "note": "[ICG-001]", "relative viability": "106 ± 1.1"}, {"smiles": "CCN(CC)Cc1ccc2cc(COC(=O)Nc3ccc(C(=O)NO)cc3)ccc2c1", "note": "[ITF2357]", "relative viability": "95.94 ± 0.22"}, {"smiles": "CC(C)Cc1ccc(C(C)C(=O)O)cc1", "note": "(configuration not stated) [Ibuprofen]", "relative viability": "114 ± 1.2"}, {"smiles": "COc1ccc(-c2oc3c(CC=C(C)C)c(O[C@@H]4O[C@H](CO)[C@@H](O)[C@H](O)[C@H]4O)cc(O)c3c(=O)c2O[C@@H]2O[C@@H](C)[C@H](O)[C@@H](O)[C@H]2O)cc1", "note": "[Icariin]", "relative viability": "89.44 ± 0.27"}, {"smiles": "Cc1ccc(NC(=O)c2ccc(CN3CCN(C)CC3)cc2)cc1Nc1nccc(-c2cccnc2)n1", "note": "[Imatinib (STI571)]", "relative viability": "99 ± 3.4"}, {"smiles": "Cc1ccc(NC(=O)c2ccc(CN3CCN(C)CC3)cc2)cc1Nc1nccc(-c2cccnc2)n1", "note": "[Imatinib Mesylate]", "relative viability": "108 ± 3.2"}, {"smiles": "CCCCC1=NC2(CCCC2)C(=O)N1Cc1ccc(-c2ccccc2-c2nnn[nH]2)cc1", "note": "[Irbesartan (Avapro)]", "relative viability": "105 ± 3.8"}, {"smiles": "CCc1c2c(nc3ccc(OC(=O)N4CCC(N5CCCCC5)CC4)cc13)-c1cc3c(c(=O)n1C2)COC(=O)[C@]3(O)CC", "note": "[Irinotecan HCl Trihydrate]", "relative viability": "97.8 ± 1.5"}, {"smiles": "CCc1c2c(nc3ccc(OC(=O)N4CCC(N5CCCCC5)CC4)cc13)-c1cc3c(c(=O)n1C2)COC(=O)[C@]3(O)CC", "note": "[Irinotecan]", "relative viability": "93.9 ± 2.1"}, {"smiles": "Clc1ccc(C(Cn2ccnc2)OCc2c(Cl)cccc2Cl)c(Cl)c1", "note": "(configuration not stated) [Isoconazole]", "relative viability": "86.81 ± 0.67"}, {"smiles": "CC(C)NCC(O)c1ccc(O)c(O)c1", "note": "(configuration not stated) [Isoprenaline HCl]", "relative viability": "102 ± 1.1"}, {"smiles": "Cc1ccc(C(=O)N(CCCN)[C@@H](c2nc3cc(Cl)ccc3c(=O)n2Cc2ccccc2)C(C)C)cc1", "note": "[Ispinesibmesilate]", "relative viability": "77.62 ± 0.57"}]}]}
